Consider 17 molecules from patent publication US20170369444A1, “INHIBITORS OF HISTONE DEMETHYLASES” (Gilead Sciences, Inc., priority 2014, published 2017).

pIC50: −log10 of the molar value. Some results are limits rather than exact numbers.

What all share (format): biochemical
The target of one experiment is T1, KDM6A (UTX) (Homo sapiens, UniProt O15550).
T1 construct: 919-1401; host or cells: E. coli
The experiment is described as follows: Histone lysine demethylase AlphaLISA assay, KDM6A. The following applies: in vitro enzyme, read-out: KDM6A IC50 (HDME Inhibition). Background: Bead proximity is the source of the signal in Alpha formats.

The target in a further experiment is T2, KDM4C (JMJD2C) (Homo sapiens, UniProt Q9H3R0).
T2 construct: 1-349; host or cells: E. coli
T2 sequence (Q9H3R0 1-349): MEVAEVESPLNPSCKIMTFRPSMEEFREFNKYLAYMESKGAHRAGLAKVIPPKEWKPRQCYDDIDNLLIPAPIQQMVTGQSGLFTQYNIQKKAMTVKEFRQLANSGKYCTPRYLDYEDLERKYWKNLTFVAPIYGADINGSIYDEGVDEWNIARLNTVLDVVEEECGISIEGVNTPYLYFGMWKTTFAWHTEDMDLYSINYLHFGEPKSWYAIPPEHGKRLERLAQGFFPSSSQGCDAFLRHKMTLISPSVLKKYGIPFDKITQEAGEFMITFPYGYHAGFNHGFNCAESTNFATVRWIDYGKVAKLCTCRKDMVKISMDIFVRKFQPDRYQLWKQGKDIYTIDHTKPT
Nature of the experiment: Histone lysine demethylase AlphaLISA assay, KDM4C. The settings on record: in vitro enzyme, read-out: KDM4C IC50 (HDME Inhibition). The protocol: Histone lysine demethylase AlphaLISA assays are performed to determine IC50 values. […] Assays are performed analogously to the protocol described by PerkinElmer (Roy et al. PerkinElmer Technical Note: AlphaLISA #12, April 2011).
Assays are performed analogously to the protocol described by PerkinElmer (Roy et al. PerkinElmer Technical Note: AlphaLISA #12, April 2011).
Enzymes (final assay concentration 0.1-2.5 nM) are dissolved in enzyme buffer and incubated for 10 min before 5 μL is added to 5 μL 3% DMSO solutions of compounds in enzyme buffer, incubated for another 10 minutes, before 5 μL substrate solution is added and the reaction mixture is incubated at room temperature. 10 μL acceptor beads, suspended Epigenetic Buffer (Perkin Elmer AL008) from stock, are added and the suspension is incubated in the dark at room temperature, before 10 μL suspension of streptavidin donor beads (Perkin Elmer 6760002) in Epigenetic Buffer is added. After incubation at room temperature in the dark the plates are read.
Substrate solution: Substrate (final assay concentration 50-200 nM), 50 mM Hepes (pH 7.4-8.0), 0.003% Tween-20, 0.1% BS, 25 μM L-Asc, 10 μM α-KG. Enzyme Buffer: 50 mM Hepes (pH 7.4-8.0), 0.003% Tween-20, 0.1% BSA; 5 μM (NH4)2Fe(SO4)2

For another experiment, the target named is T3, KDM2B (FBXL10) (Homo sapiens, UniProt Q8NHM5).
T3 construct: 1-650; purchased BPS Bioscience, US; host or cells: Bac (baculovirus/insect cells)
T3 sequence (Q8NHM5 1-650): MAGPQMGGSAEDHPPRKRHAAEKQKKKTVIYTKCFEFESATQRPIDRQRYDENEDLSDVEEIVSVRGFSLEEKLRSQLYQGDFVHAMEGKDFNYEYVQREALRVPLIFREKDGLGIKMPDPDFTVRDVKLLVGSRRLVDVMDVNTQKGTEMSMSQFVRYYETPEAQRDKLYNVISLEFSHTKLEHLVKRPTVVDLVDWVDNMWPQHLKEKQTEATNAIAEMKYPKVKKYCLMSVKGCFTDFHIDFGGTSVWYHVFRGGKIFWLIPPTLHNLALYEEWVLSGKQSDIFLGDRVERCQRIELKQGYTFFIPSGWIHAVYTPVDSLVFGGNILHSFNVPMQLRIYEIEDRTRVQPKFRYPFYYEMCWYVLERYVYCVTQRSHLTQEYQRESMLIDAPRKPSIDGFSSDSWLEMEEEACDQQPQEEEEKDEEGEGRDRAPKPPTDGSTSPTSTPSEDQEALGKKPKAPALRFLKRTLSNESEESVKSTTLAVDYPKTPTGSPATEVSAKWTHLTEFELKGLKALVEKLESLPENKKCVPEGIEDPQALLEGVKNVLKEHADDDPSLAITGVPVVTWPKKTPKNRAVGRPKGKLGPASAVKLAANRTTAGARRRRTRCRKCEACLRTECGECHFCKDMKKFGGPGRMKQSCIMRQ
The experiment is described as follows: Histone lysine demethylase AlphaLISA assay, KDM2B. The following applies: in vitro enzyme, read-out: KDM2B IC50 (HDME Inhibition).

For the next experiment, the target named is PHF8 (KDM7) (Homo sapiens, UniProt Q9UPP1). The experiment is described as follows: Histone lysine demethylase AlphaLISA assay, PHF8. The following applies: in vitro enzyme, read-out: PHF8 IC50 (HDME Inhibition).
The target in the next experiment is T4, KDM5B (PLU-1) (Homo sapiens, UniProt Q9UGL1).
T4 construct: 1-809; host or cells: E. coli
T4 sequence (Q9UGL1 1-809): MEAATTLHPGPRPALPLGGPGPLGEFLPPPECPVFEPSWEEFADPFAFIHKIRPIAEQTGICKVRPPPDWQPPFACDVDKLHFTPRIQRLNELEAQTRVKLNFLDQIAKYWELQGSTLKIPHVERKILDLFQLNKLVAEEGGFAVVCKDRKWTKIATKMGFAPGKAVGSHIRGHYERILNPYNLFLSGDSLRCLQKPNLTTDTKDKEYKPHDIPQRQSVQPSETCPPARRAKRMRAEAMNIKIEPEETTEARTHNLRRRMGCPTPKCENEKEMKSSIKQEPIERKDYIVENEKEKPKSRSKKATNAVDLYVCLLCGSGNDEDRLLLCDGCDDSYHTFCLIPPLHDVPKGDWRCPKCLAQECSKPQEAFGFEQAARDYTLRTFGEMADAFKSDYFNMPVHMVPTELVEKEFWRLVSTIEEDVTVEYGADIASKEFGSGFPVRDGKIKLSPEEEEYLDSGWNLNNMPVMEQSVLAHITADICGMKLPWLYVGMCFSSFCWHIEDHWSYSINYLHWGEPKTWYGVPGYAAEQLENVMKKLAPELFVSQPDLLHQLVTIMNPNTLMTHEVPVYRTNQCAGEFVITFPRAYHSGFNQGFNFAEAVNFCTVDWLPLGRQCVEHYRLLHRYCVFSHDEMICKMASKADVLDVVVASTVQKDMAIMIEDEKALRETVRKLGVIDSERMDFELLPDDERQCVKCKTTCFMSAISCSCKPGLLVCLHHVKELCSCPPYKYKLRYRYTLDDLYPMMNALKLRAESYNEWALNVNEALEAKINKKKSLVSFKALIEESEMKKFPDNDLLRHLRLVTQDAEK
Nature of the experiment: Histone lysine demethylase AlphaLISA assay, KDM5B. The settings on record: in vitro enzyme, read-out: KDM5B IC50 (HDME Inhibition).

T1 sequence (O15550 919-1401): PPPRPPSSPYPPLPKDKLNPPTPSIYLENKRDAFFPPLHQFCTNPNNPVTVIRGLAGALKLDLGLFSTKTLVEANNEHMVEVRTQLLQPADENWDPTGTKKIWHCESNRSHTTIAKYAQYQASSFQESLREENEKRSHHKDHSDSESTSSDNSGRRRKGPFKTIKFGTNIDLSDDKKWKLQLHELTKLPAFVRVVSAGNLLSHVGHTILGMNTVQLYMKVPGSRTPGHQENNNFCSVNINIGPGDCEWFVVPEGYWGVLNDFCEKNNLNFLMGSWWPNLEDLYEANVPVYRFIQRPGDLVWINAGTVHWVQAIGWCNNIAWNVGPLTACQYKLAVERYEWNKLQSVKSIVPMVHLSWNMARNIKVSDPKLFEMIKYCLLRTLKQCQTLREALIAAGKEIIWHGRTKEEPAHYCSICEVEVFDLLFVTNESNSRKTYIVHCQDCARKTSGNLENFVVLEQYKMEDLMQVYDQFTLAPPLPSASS
Sequence of PHF8 (KDM7) (Q9UPP1 whole entry): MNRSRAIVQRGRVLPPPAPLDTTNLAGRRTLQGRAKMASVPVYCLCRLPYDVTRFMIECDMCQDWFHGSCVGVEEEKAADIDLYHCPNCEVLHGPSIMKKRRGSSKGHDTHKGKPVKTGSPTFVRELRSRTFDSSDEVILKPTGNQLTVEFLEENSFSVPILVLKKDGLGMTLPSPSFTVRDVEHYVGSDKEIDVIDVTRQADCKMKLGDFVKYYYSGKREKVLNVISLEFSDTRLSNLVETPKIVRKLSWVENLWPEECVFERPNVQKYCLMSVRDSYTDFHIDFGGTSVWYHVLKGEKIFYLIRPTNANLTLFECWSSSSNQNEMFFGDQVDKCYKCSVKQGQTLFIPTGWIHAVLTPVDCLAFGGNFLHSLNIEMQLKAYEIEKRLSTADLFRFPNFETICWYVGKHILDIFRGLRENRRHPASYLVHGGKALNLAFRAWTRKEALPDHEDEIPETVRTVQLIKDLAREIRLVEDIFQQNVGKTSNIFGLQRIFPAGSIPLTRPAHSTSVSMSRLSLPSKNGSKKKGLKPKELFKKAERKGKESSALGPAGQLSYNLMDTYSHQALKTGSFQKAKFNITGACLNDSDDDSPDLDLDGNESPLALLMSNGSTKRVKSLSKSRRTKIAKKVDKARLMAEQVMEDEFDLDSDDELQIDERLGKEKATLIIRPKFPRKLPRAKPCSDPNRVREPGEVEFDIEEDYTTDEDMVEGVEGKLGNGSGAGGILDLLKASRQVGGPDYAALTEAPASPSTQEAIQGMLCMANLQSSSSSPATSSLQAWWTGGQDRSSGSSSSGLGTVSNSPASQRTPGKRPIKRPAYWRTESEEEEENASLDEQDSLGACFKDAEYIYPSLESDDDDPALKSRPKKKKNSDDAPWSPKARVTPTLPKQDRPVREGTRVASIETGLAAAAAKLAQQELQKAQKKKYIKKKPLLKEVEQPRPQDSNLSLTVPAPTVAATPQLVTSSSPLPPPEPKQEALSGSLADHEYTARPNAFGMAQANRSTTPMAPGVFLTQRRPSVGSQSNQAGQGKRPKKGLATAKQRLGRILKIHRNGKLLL

As for `C[C@H](N[C@H](C)c1cc(C(=O)O)ccn1)C(=O)NCc1ccc(CO)cc1` [Compound 16, 2-[(1R)-1-{[(1S)-1-({[4-(hydroxymethyl)phenyl]methyl}carbamoyl)ethyl]amino}ethyl] pyridine-4-carboxylic acid], the negative-log IC50 (pIC50) (usually the IC50 on a negative log10 scale, so that one unit is a factor of ten) on KDM6A (UTX) was under 5.60; at KDM4C (JMJD2C), under 5.60; at KDM2B (FBXL10), 5.60 to 6.60.
Consider `O=C(O)c1ccnc(CNCc2cn(Cc3ccc(F)cc3)c3ccc(F)cc23)c1` [Compound 86, 2-{[({5-fluoro-1-[(4-fluorophenyl)methyl]-1H-indol-3-yl}methyl)amino]methyl}pyridine-4-carboxylic acid], for which the pIC50 was under 5.60 at KDM6A (UTX), under 5.60 on KDM4C (JMJD2C) and 5.60 to 6.60 at KDM2B (FBXL10).
For `C=CCc1cnc2c(c1)CCC2NCc1cc(C(=O)O)ccn1` (stereo not shown) [Compound 95, 2-({[3-(prop-2-en-1-yl)-5H,6H,7H-cyclopenta[b]pyridin-7-yl]amino}methyl)pyri-dine-4-carboxylic acid], the pIC50 was over 6.60 on PHF8 (KDM7), 5.60 to 6.60 at KDM4C (JMJD2C) and over 6.60 on KDM2B (FBXL10).
As for `CC(NCc1nccs1)c1cc(C(=O)O)ccn1` (stereo not shown) [Compound 41, 2-{1-[(1,3-thiazol-2-ylmethyl)amino]ethyl} pyridine-4-carboxylic acid], the pIC50 on KDM5B (PLU-1), on KDM4C (JMJD2C) and at KDM2B (FBXL10) was 5.60 to 6.60 throughout.
On to `CCN(CC)C(=O)CC(C)NCc1cc(C(=O)O)ccn1` (stereo not shown) [Compound 43, 2-({[1-(diethylcarbamoyl)propan-2-yl]amino}methyl)pyri-dine-4-carboxylic acid], for which the pIC50 at PHF8 (KDM7) is 5.60 to 6.60; on KDM4C (JMJD2C), under 5.60; on KDM2B (FBXL10) it was 5.60 to 6.60.
As for `CCNC(=O)C[C@H]1CCN(Cc2cc(C(=O)O)ccn2)C1` [Compound 73, 2-{[(3R)-3-[(ethylcarbamoyl)methyl]pyrrolidin-1-yl]methyl}pyridine-4-carboxylic acid], the figures for the negative logarithm of the IC50 (pIC50) on PHF8 (KDM7), at KDM4C (JMJD2C) and on KDM2B (FBXL10) were 5.60 to 6.60, under 5.60 and 5.60 to 6.60, respectively.
For `CCN(CC)C(=O)CCN(CCC(=O)N(CC)CC)Cc1cc(C(=O)O)ccn1` [Compound 32, 2-({bis[2-(diethylcarbamoyl)ethyl]amino}methyl)pyri-dine-4-carboxylic acid], the pIC50 is under 5.60 at PHF8 (KDM7), under 5.60 on KDM4C (JMJD2C) and 5.60 to 6.60 at KDM2B (FBXL10).
Turning to `CCN1CCC[C@@H](CNCc2cc(C(=O)O)ccn2)C1=O` [Compound 104, 2-[({[(3S)-1-ethyl-2-oxopiperidin-3-yl]methyl}amino)methyl]pyridine-4-carboxylic acid], the negative-log IC50 (pIC50) is under 5.60 on KDM6A (UTX), 5.60 to 6.60 on PHF8 (KDM7), over 6.60 on KDM5B (PLU-1) and 5.60 to 6.60 at KDM4C (JMJD2C).
With `CC(C)c1ccnc2c1CCC2NCc1cc(C(=O)O)ccn1` (stereo not shown) [Compound 99, 2-({[4-(propan-2-yl)-5H,6H,7H-cyclopenta[b]pyridin-7-yl]amino}methyl)pyri-dine-4-carboxylic acid], the values for the pIC50 at KDM6A (UTX), at KDM4C (JMJD2C) and on KDM2B (FBXL10) were under 5.60, 5.60 to 6.60 and over 6.60, respectively.
As for `C=CCN(CC=C)C(=O)[C@H](CC(=O)NCCCN(C)C)NCc1cc(C(=O)O)ccn1` [Compound 10, 2-({[(1S)-1-[bis(prop-2-en-1-yl)carbamoyl]-2-{[3-(dimethylamino)propyl]carbamoyl}ethyl]amino}methyl)pyridine-4-carboxylic acid], the pIC50 on KDM5B (PLU-1) was over 6.60; at KDM4C (JMJD2C), under 5.60; on KDM2B (FBXL10) it was under 5.60.
Regarding `O=C(O)c1ccnc(CNC2CCc3cccnc32)c1` (stereo not shown) [Compound 98, 2-[({5H,6H,7H-cyclopenta[b]pyridin-7-yl}amino)methyl]pyri-dine-4-carboxylic acid], the pIC50 is over 6.60 on KDM5B (PLU-1), 5.60 to 6.60 on KDM4C (JMJD2C) and 5.60 to 6.60 on KDM2B (FBXL10).
On to `COc1ccnc2c1CCC2NCc1cc(C(=O)O)ccn1` (stereo not shown) [Compound 101, 2-[({4-methoxy-5H,6H,7H-cyclopenta[b]pyridin-7-yl}amino)methyl]pyri-dine-4-carboxylic acid], for which the pIC50 is over 6.60 at KDM5B (PLU-1), 5.60 to 6.60 on KDM4C (JMJD2C) and over 6.60 at KDM2B (FBXL10).
Consider `CCN1CC[C@H](CNCc2cc(C(=O)O)ccn2)C1=O` [Compound 106, 2-[({[(3R)-1-ethyl-2-oxopyrrolidin-3-yl]methyl}amino)methyl]pyridine-4-carboxylic acid], for which the pIC50 on KDM6A (UTX) is under 5.60; on KDM4C (JMJD2C), over 6.60; on KDM2B (FBXL10) it was over 6.60.
For `COCC(=O)Nc1ccccc1CNC(=O)[C@H](CC(C)C)NCc1cc(C(=O)O)ccn1` [Compound 12, 2-({[(1S)-1-({[2-(2-methoxyacetamido)phenyl]methyl}carbamoyl)-3-methylbutyl]amino}methyl)pyridine-4-carboxylic acid], the values for the pIC50 on PHF8 (KDM7), at KDM4C (JMJD2C) and at KDM2B (FBXL10) were 5.60 to 6.60, under 5.60 and 5.60 to 6.60, respectively.
With `CCN(CC)C(=O)CCN(CC(N)=O)C(C)c1cc(C(=O)O)ccn1` (stereo not shown) [Compound 31, 2-{1-[(carbamoylmethyl)[2-(diethylcarbamoyl)ethyl]amino]ethyl}pyridine-4-carboxylic acid], the pIC50 on PHF8 (KDM7), on KDM4C (JMJD2C) and at KDM2B (FBXL10) was under 5.60 in each case.
Take `C=CCN(CC=C)C(=O)[C@@H](CCCCN(CCC)C(=O)OC(C)(C)C)NCc1cc(C(=O)O)ccn1` [Compound 4, 2-({[(1R)-1-[bis(prop-2-en-1-yl)carbamoyl]-5-{[(tert-butoxy)carbonyl](propyl)amino}pentyl]amino}methyl)pyridine-4-carboxylic acid]: the pIC50 at KDM5B (PLU-1) is under 5.60; at KDM4C (JMJD2C), under 5.60; at KDM2B (FBXL10), 5.60 to 6.60.
As for `CC(NCC(=O)N1CCCCC1)c1cc(C(=O)O)ccn1` (stereo not shown) [Compound 48, 2-(1-{[2-oxo-2-(piperidin-1-yl)ethyl]amino}ethyl) pyridine-4-carboxylic acid], the pIC50 on KDM5B (PLU-1), at KDM4C (JMJD2C) and on KDM2B (FBXL10) was 5.60 to 6.60 each time.
